Measurements taken from PubChem BioAssay AID220 (DTP/NCI, 2004).
Several values for one entry are separate records, joined by “and”; a condition that tells them apart may be missing. Equal entries are not always repeated. Results filed as inconclusive are left out.

Tested on: CD8F1 mice, subcutaneous mammary adenocarcinoma, T/C%
Assay: NCI In Vivo Anticancer Drug Screen. Data for tumor model Mammary Adenocarcinoma CD8F1 (subcutaneous) in CD8F1
Details: higher = larger tumour
In short: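 Antitumor activity is assessed in transplantable-tumor mice by comparing the treated group with a vehicle-treated control group. Survival or tumor size serves as the measure, reported as T divided by C.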

[1] = endpoint: median tumor weight (est.), dose: 25.0 mg/kg/injection, schedule: Q07DX005 (ip), vehicle: saline
[2] = endpoint: median tumor weight (est.), dose: 50.0 mg/kg/injection, schedule: Q07DX005 (ip), vehicle: saline

For `CC(=O)NC(CCc1ccc(Cl)c(Cl)c1)c1cccc(O)c(=O)c1` (stereo unspecified), the T/C (endpoint: median tumor weight change, dose: 31.0 mg/kg/injection, schedule: Q01DX001 (ip), vehicle: Klucel (hydroxypropylcellulose) (HPC)) was 114 % of control, the T/C (endpoint: median tumor weight change, dose: 62.0 mg/kg/injection, schedule: Q01DX001 (ip), vehicle: Klucel (hydroxypropylcellulose) (HPC)) was 99 % of control and the T/C (endpoint: median tumor weight change, dose: 125.0 mg/kg/injection, schedule: Q01DX001 (ip), vehicle: Klucel (hydroxypropylcellulose) (HPC)) was 165 % of control. For the same compound, the T/C (endpoint: median tumor weight change, dose: 250.0 mg/kg/injection, schedule: Q01DX001 (ip), vehicle: Klucel (hydroxypropylcellulose) (HPC)) was 88 % of control and the T/C (endpoint: median tumor weight change, dose: 500.0 mg/kg/injection, schedule: Q01DX001 (ip), vehicle: Klucel (hydroxypropylcellulose) (HPC)) was 88 % of control.

In the case of `C[n+]1c(/C=N/NC(N)=S)ccc2ccccc21`, the T/C (endpoint: median tumor weight change, dose: 62.5 mg/kg/injection, schedule: Q01DX001 (ip), vehicle: saline with Tween-80) is reported as 108 % of control, the T/C (endpoint: median tumor weight change, dose: 125.0 mg/kg/injection, schedule: Q01DX001 (ip), vehicle: saline with Tween-80) is reported as 181 % of control and the T/C (endpoint: median tumor weight change, dose: 250.0 mg/kg/injection, schedule: Q01DX001 (ip), vehicle: saline with Tween-80) is reported as 77 % of control.

`CC[N](CC)[Ge]([CH2]C)[CH2]C.CC[N](CC)[Ge]([CH2]C)[CH2]C` was tested, and the T/C (endpoint: median tumor weight (est.), dose: 6.25 mg/kg/injection, schedule: Q07DX005 (ip), vehicle: saline) was 116 % of control, the T/C (endpoint: median tumor weight (est.), dose: 12.5 mg/kg/injection, schedule: Q07DX005 (ip), vehicle: saline) was 74 % of control and the T/C [1] was 124 % of control. The T/C [2] was 94 % of control.

`OC(CBr)C(O)C(O)C(O)CBr` (stereo unspecified) was tested, and the T/C (endpoint: mean tumor weight, dose: 100.0 mg/kg/injection, schedule: Q01DX009 (ip), vehicle: saline) was 164 % of control, the T/C (endpoint: mean tumor weight, dose: 150.0 mg/kg/injection, schedule: Q01DX009 (ip), vehicle: saline) was 89 % of control and the T/C (endpoint: mean tumor weight, dose: 200.0 mg/kg/injection, schedule: Q01DX009 (ip), vehicle: saline) was 69 % of control. The T/C (endpoint: mean tumor weight, dose: 300.0 mg/kg/injection, schedule: Q01DX009 (ip), vehicle: saline) was 49 % of control, the T/C (endpoint: mean tumor weight, dose: 400.0 mg/kg/injection, schedule: Q01DX009 (ip), vehicle: saline) was 53 % of control and the T/C (endpoint: mean tumor weight, dose: 500.0 mg/kg/injection, schedule: Q01DX009 (ip), vehicle: saline) was 38 % of control. The T/C (endpoint: median tumor weight (est.), dose: 25.0 mg/kg/injection, schedule: Q07DX005 (ip), vehicle: Klucel (hydroxypropylcellulose) (HPC)) was 49 % of control, the T/C [1] was 84 % of control and the T/C [2] was 32 % of control. For the same compound, the T/C (endpoint: median tumor weight (est.), dose: 100.0 mg/kg/injection, schedule: Q07DX005 (ip), vehicle: Klucel (hydroxypropylcellulose) (HPC)) was 31 % of control, the T/C (endpoint: median tumor weight (est.), dose: 100.0 mg/kg/injection, schedule: Q07DX005 (ip), vehicle: saline) was 41 % of control and the T/C (endpoint: median tumor weight (est.), dose: 200.0 mg/kg/injection, schedule: Q07DX005 (ip), vehicle: Klucel (hydroxypropylcellulose) (HPC)) was 2 % of control. The T/C (endpoint: median tumor weight (est.), dose: 200.0 mg/kg/injection, schedule: Q07DX005 (ip), vehicle: saline) was 28 % of control, the T/C (endpoint: median tumor weight (est.), dose: 400.0 mg/kg/injection, schedule: Q07DX005 (ip), vehicle: saline) was 7 % of control and the T/C (endpoint: median tumor weight (est.), dose: 1200.0 mg/kg/injection, schedule: Q07DX005 (ip), vehicle: Klucel (hydroxypropylcellulose) (HPC)) was 13 % of control. For the same compound, the T/C (endpoint: median tumor weight change, dose: 150.0 mg/kg/injection, schedule: Q01DX001 (ip), vehicle: Klucel (hydroxypropylcellulose) (HPC)) was 95 % of control, the T/C (endpoint: median tumor weight change, dose: 300.0 mg/kg/injection, schedule: Q01DX001 (ip), vehicle: Klucel (hydroxypropylcellulose) (HPC)) was 39 % of control and the T/C (endpoint: median tumor weight change, dose: 600.0 mg/kg/injection, schedule: Q01DX001 (ip), vehicle: Klucel (hydroxypropylcellulose) (HPC)) was 51 % of control.

In the case of `NC(=O)c1csc(C2OC(CO)C(O)C2O)n1` (stereo unspecified), the T/C (endpoint: median tumor weight change, dose: 125.0 mg/kg/injection, schedule: Q01DX001 (ip), vehicle: water) is reported as 87 % of control and 96 % of control, the T/C (endpoint: median tumor weight change, dose: 500.0 mg/kg/injection, schedule: Q01DX001 (ip), vehicle: water) is reported as 11 % of control and 35 % of control and the T/C (endpoint: median tumor weight change, dose: 2000.0 mg/kg/injection, schedule: Q01DX001 (ip), vehicle: water) is reported as 55 % of control.

For `Cc1cc(NCCN(C(C)C)C(C)C)nc(/N=C(\N)Nc2ccc(Cl)c(C(F)(F)F)c2)n1`, the T/C (endpoint: median tumor weight change, dose: 12.5 mg/kg/injection, schedule: Q01DX001 (ip), vehicle: Klucel (hydroxypropylcellulose) (HPC)) was 39 % of control and 45 % of control, the T/C (endpoint: median tumor weight change, dose: 50.0 mg/kg/injection, schedule: Q01DX001 (ip), vehicle: Klucel (hydroxypropylcellulose) (HPC)) was 27 % of control and 39 % of control and the T/C (endpoint: median tumor weight change, dose: 100.0 mg/kg/injection, schedule: Q01DX001 (ip), vehicle: Klucel (hydroxypropylcellulose) (HPC)) was 50 % of control and 74 % of control.

For `Brc1c(NC2=NCCN2)ccc2nccnc12`, the T/C (endpoint: median tumor weight change, dose: 15.6 mg/kg/injection, schedule: Q01DX001 (ip), vehicle: saline) was 52 % of control, the T/C (endpoint: median tumor weight change, dose: 31.25 mg/kg/injection, schedule: Q01DX001 (ip), vehicle: saline) was 77 % of control and the T/C (endpoint: median tumor weight change, dose: 62.5 mg/kg/injection, schedule: Q01DX001 (ip), vehicle: saline) was 81 % of control. The T/C (endpoint: median tumor weight change, dose: 125.0 mg/kg/injection, schedule: Q01DX001 (ip), vehicle: saline) was 92 % of control and the T/C (endpoint: median tumor weight change, dose: 250.0 mg/kg/injection, schedule: Q01DX001 (ip), vehicle: saline) was 53 % of control.
